This note sets out measurements from PMC4544630, “Contribution of C-glucosidic ellagitannins to Lythrum salicaria L. influence on pro-inflammatory functions of human neutrophils” (Journal of Natural Medicines, 2014).

Usually IC50 stands for the midpoint of a concentration-inhibition curve. Low values mean inhibition by little substance, high ones a need for much substance.

The subject of test [1] is MPO. Kind of test: MPO release from cytochalasin A/f-MLP-stimulated neutrophils (TMB substrate). The note with it: cytochalasin A/f-MLP, % of stimulated control. Type of test: cell-based, human. The text has this:
Peripheral venous blood was taken from healthy human donors (20-35 years old) in the Warsaw Blood Donation Centre. […] The study conformed to the principles of the Declaration of Helsinki. Neutrophils were isolated using a standard method of dextran sedimentation prior to hypotonic lysis of erythrocytes and to centrifugation in a Ficoll Hypaque gradient. The purity of neutrophil preparations was >97 %, and viability measured by trypan blue exclusion was >98 %. Neutrophils were then resuspended in appropriate medium to perform the selected assay. Neutrophil MPO release was determined using TMB as a substrate. […] After centrifugation (2000 rpm; 10 min; 4 °C), 100 μL of supernatant was incubated with 50 μL of the TMB liquid substrate system. The reaction was terminated after 20 min by the addition of 2 M hydrochloric acid. The absorbance was measured at […] using a microplate reader (BioTek). Gallic acid was used as a positive control, according to Kroes et al..

Test [2] relates to IL-8. Nature of the test: IL-8 production by LPS-stimulated neutrophils (ELISA). Type of test: cell-based, human. The note with it: LPS 100 ng/mL, 24 h, % of stimulated control. From the text:
(§1) Peripheral venous blood was taken from healthy human donors (20–35 years old) in the Warsaw Blood Donation Centre. […] The study conformed to the principles of the Declaration of Helsinki. Neutrophils were isolated using a standard method of dextran sedimentation prior to hypotonic lysis of erythrocytes and to centrifugation in a Ficoll Hypaque gradient. The purity of neutrophil preparations was >97 %, and viability measured by trypan blue exclusion was >98 %. Neutrophils were then resuspended in appropriate medium to perform the selected assay.
(§2) Neutrophils (2 × 10^5/mL) were cultured in 24-well plates in RPMI 1640 medium with 10 % FBS, 10 mM HEPES, and 2 mM L-glutamine in the absence or presence of LPS (100 ng/mL) for 24 h at 37 °C with 5 % CO2 in the absence or presence of extract at concentrations of 1, 5 and 20 μg/mL, and compounds at concentrations of 1, 5 and 20 μM were added to 1 mL of cell suspension 1 h before the stimuli. After 24 h, the neutrophils were harvested and centrifuged (2000 RPM; 10 min; 4 °C). The amount of IL-8 or MMP-9 released into cell supernatants was measured by enzyme-linked immunosorbent assay (ELISA) following the manufacturer’s instructions (R&D Systems, Minneapolis, MN, USA). PBS was used as a non-stimulated control. Curcumin was used as a positive control, according to Aggarwal and Harikumar and Antoine et al..
(In general: ELISA stands for enzyme-linked immunosorbent assay.)

Test [3] relates to MMP-9. Kind of test: MMP-9 production by LPS-stimulated neutrophils (ELISA). Format: cell-based, human. The note with it: LPS 100 ng/mL, 24 h, % of stimulated control.
Excerpt: as §1, §2

The test system of test [4] is elastase. Nature of the test: Elastase release from cytochalasin A/f-MLP-stimulated neutrophils (SAAVNA substrate). Type of test: cell-based, human. The note with it: % of stimulated control.
Excerpt: as §1
Neutrophil elastase release was determined using SAAVNA as a substrate, and […] was measured spectrophotometrically. 100 μL of cell suspension (5 × 10^5/mL) in HBSS was preincubated with 50 μL of compound or extract solution (final concentrations of 1, 5 and 20 μM or μg/mL) for 15 min at 37 °C and then stimulated with 50 μL of cytochalasin A (5 μg/mL) and f-MLP (0.1 μg/mL) for 15 min. The neutrophils were centrifuged (2000 rpm; 10 min; 4 °C). After the addition of 50 μL of SAAVNA solution (1.6 mg/mL) to 100 μL of supernatant, the extent of […] was measured spectrophotometrically for 1 h at intervals of 20 min, at 412 nm using a microplate reader (BioTek). According to Kanashiro et al., quercetin was used as a positive control.

The subject of test [5] is ROS. Nature of the test: ROS release from f-MLP-stimulated neutrophils, luminol chemiluminescence. Format: cell-based, human. The note with it: % of stimulated control.
Excerpt: as §1
(§3) Generation of oxidants by f-MLP or PMA-stimulated neutrophils was measured using luminol- or lucigenin-dependent chemiluminescence tests. 70 μL of cell suspension (2 × 10^5/mL) in HBSS was incubated with 50 μL of compound or extract solution (final concentrations of 1, 5 and 20 μM or μg/mL) together with 50 μL of luminol (100 μM) or lucigenin (200 μM) solution. ROS production was initiated by the addition of 30 μL of f-MLP (0.1 μg/mL) or PMA (1 μg/mL). Changes in chemiluminescence at 37 °C were measured immediately for 45 min at intervals of 2 min in a microplate reader (Biotek). Ascorbic acid was used as a positive control.

Test [6] relates to ROS. Kind of test: ROS release from PMA-stimulated neutrophils, lucigenin chemiluminescence. Type of test: cell-based, human. The note with it: PMA + lucygenin, % of stimulated control.
Excerpt: as §1, §3

The target in test [7] is T1, bovine testis hyaluronidase (Bos taurus, UniProt Q2YDK3).
T1 construct: purchased Sigma–Aldrich GmbH (Steinheim, Germany); host or cells: bovine testis
T1 sequence (Q2YDK3 36-553): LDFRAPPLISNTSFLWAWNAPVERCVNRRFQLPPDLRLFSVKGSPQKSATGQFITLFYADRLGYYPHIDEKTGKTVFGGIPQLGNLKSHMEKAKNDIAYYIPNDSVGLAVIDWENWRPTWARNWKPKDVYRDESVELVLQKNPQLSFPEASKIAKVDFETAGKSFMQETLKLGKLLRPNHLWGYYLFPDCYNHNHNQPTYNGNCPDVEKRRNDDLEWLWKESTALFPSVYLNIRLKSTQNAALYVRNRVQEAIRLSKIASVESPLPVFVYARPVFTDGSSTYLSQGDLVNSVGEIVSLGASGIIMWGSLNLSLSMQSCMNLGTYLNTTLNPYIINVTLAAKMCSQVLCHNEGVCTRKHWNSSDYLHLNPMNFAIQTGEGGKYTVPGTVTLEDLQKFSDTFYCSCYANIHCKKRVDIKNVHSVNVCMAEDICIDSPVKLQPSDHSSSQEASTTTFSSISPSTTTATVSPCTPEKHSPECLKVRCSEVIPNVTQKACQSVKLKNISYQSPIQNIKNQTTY
Nature of the test: Hyaluronidase activity, USP turbidimetric method modified. The note with it: for Hyaluronidase activity Mean(%): % of 100% active enzyme control. Format: biochemical. From the text:
The […] flowering herb was collected from its natural habitat in Umer in the Świętokrzyskie region (Poland) in July 2011. Its identity was confirmed anatomically and morphologically based on its pharmacopoeial monograph in the Department of Pharmacognosy and Molecular Basis of Phytotherapy, Medical University of Warsaw, where the voucher specimen UMER2011 is deposited. […] […]), castalagin ([…] (SB) and […]. 1, 2) from […] performed according to Piwowarski and Kiss. […] Isolated ellagitannins were of >95 % purity (determined by the HPLC-DAD-CAD method). […] Gallic acid (>96 % purity) was purchased from ChromaDex (Santa Ana, USA). Propidium iodide was purchased from BD Biosciences (San Diego, CA, USA). All substances used were of >95 % purity. Phosphate-buffered saline (PBS) was purchased from Gibco (Carlsbad, CA, USA). The influence of extract and ellagitannins on hyaluronidase activity was measured using the USP turbidimetric method modified by Piwowarski et al. […] Heparin was used as a positive control.

Regarding `O=C(O)c1cc(O)c(O)c(O)c1` [gal, Gallic acid, reference compound], the “MPO release Mean(%)” value is 85,62% in test [1] (1 μM), 58,97% in test [1] (5 μM) and 18,88% in test [1] (20 μM).
`O=C(OC1COC(=O)c2cc(O)c(O)c(O)c2-c2c(cc(O)c(O)c2O)C(=O)OC1C1OC(=O)c2cc(O)c(O)c(O)c2-c2c(O)c(O)c(O)c3c2C(=O)OC1C3O)c1cc(O)c(O)c(O)c1Oc1cc2c(c(O)c1O)-c1c(cc(O)c(O)c1O)C(=O)OCC1OC(=O)c3cc(O)c(O)c(O)c3-c3c(O)c(O)c(O)c4c3C(=O)OC(C1OC2=O)C1OC(=O)c2c-4c(O)c(O)c(O)c2C1O` (centres unmarked) [SA, salicarinin A]: the “IL-8 production Mean (%)” value in test [2] (1 μM) is on record as 89,82%; in test [2] (5 μM), 81,38%; in test [2] (20 μM) it was 79,80%. Moreover, the “MMP-9 production Mean (%)” value in test [3] (1 μM) was 100,80%; in test [3] (5 μM), 92,00%; in test [3] (20 μM) it was 96,35%. Moreover, the “Elastase release Mean(%)” value is 80,47% in test [4] (1 μM), 63,45% in test [4] (5 μM) and 42,22% in test [4] (20 μM). Further, the results for the “MPO release Mean(%)” value in test [1] (1 μM), in test [1] (5 μM) and in test [1] (20 μM) were 61,96%, 31,79% and 1,52%, respectively. The “ROS release Mean(%)” value in test [5] (1 μM) is 54,14%; in test [5] (5 μM), 27,84%; in test [5] (20 μM), 19,49%; in test [6] (1 μM) it was 66,68%; in test [6] (5 μM), 44,80%; in test [6] (20 μM), 14,59%. In test [7], inhibition was half-maximal at 1600 ± 100 nM (IC50). In addition, the “Hyaluronidase activity Mean(%)” value is 75,50% in test [7] (1 μM), 35,96% in test [7] (2 μM), 0,50% in test [7] (5 μM) and 1,13% in test [7] (20 μM).
Take `COc1cc(/C=C/C(=O)CC(=O)/C=C/c2ccc(O)c(OC)c2)ccc1O` [Cur, curcumin, reference compound]: the “IL-8 production Mean (%)” value in test [2] (1 μM) is listed as 112,66%; in test [2] (5 μM), 58,75%; in test [2] (20 μM), 26,70%. Further, the “MMP-9 production Mean (%)” value in test [3] (1 μM) is reported as 100,14%; in test [3] (5 μM), 64,26%; in test [3] (20 μM), 39,26%.
Consider `O=C(OC1COC(=O)c2cc(O)c(O)c(O)c2-c2c(cc(O)c(O)c2O)C(=O)OC1C1OC(=O)c2cc(O)c(O)c(O)c2-c2c(O)c(O)c(O)c3c2C(=O)OC1C3O)c1cc(O)c(O)c(O)c1Oc1cc2c(c(O)c1O)-c1c(cc(O)c(O)c1O)C(=O)OCC1OC(=O)c3cc(O)c(O)c(O)c3-c3c(O)c(O)c(O)c4c3C(=O)OC(C1OC2=O)C1OC(=O)c2c-4c(O)c(O)c(O)c2C1O` (centres unmarked) [SB, salicarinin B], for which the “IL-8 production Mean (%)” value is on record as 107,98% in test [2] (1 μM), 78,12% in test [2] (5 μM) and 59,17% in test [2] (20 μM). The “MMP-9 production Mean (%)” value was 99,56% in test [3] (1 μM), 95,83% in test [3] (5 μM) and 78,81% in test [3] (20 μM). The “Elastase release Mean(%)” value is reported as 82,54% in test [4] (1 μM), 65,03% in test [4] (5 μM) and 38,16% in test [4] (20 μM). In addition, the figures for the “MPO release Mean(%)” value in test [1] (1 μM), in test [1] (5 μM) and in test [1] (20 μM) were 67,99%, 49,60% and 2,93%, respectively. Moreover, the “ROS release Mean(%)” value in test [5] (1 μM) is 61,64%; in test [5] (5 μM), 28,73%; in test [5] (20 μM) it was 16,39%; in test [6] (1 μM) it was 64,77%; in test [6] (5 μM), 36,09%; in test [6] (20 μM), 13,06%. The same molecule displayed an IC50 in test [7] of 1600 ± 200 nM. The “Hyaluronidase activity Mean(%)” value in test [7] (1 μM) is reported as 70,96%; in test [7] (2 μM) it was 34,62%; in test [7] (5 μM) it was -0,07%; in test [7] (20 μM), 0,50%.
On to `O=c1c(O)c(-c2ccc(O)c(O)c2)oc2cc(O)cc(O)c12` [Q, quercetin, reference compound], for which the “Elastase release Mean(%)” value in test [4] (1 μM) is 104,09%; in test [4] (5 μM) it was 78,40%; in test [4] (20 μM), 55,22%.
For the molecule `O=C1O[C@H]([C@@H](O)CO)C(O)=C1O` [VitC, ascorbic acid, reference compound], the “ROS release Mean(%)” value in test [5] (1 μM) is reported as 91,10%; in test [5] (5 μM), 79,14%; in test [5] (20 μM) it was 61,91%; in test [6] (1 μM) it was 93,99%; in test [6] (5 μM), 94,53%; in test [6] (20 μM), 85,15%.
Turning to Heparin [reference compound], the “Hyaluronidase activity Mean(%)” value is listed as 100,00% in test [7] (1 μg/mL), 96,35% in test [7] (2 μg/mL), 89,89% in test [7] (5 μg/mL) and 82,73% in test [7] (20 μg/mL).
